From patent publication US20110251069A1, “ISOXAZOLE DERIVATIVES FOR USE AS PLANT GROWTH REGULATORS” (SYNGENTA CROP PROTECTION LLC, priority 2008, published 2011) come the findings set out here.

In the assay the test system is wheat plants cultivar (cv.). Riband. As to the kind of experiment: Biological evaluation of plant growth regulation effects on wheat. Particulars: 200 ppm; 2 weeks old wheat plants cv. Riband sprayed with formulated compound; assessed after 8 days at 22° C. and 80% r. h. in a greenhouse. In kind it is in vivo. Here is the method:
Biological Evaluation of Plant Growth Regulation Effects on Wheat
2 weeks old wheat plants cultivar (cv.). Riband were treated with the formulated test compound in a spray chamber. After an incubation period of 8 days at 22° C. and 80% relative humidity (r. h.) in a greenhouse, the plant growth regulating effects were assessed.

With `OC(c1cccnc1)c1c(-c2ccccc2Cl)csc1-c1ccc(F)cc1F` (stereo not shown) [Compound 175, 2-(2,4-Difluorophenyl)-4-(2-chlorophenyl)-3-[(3-pyridyl)hydroxymethyl]-thiophene], the “plant growth regulating effects” value is “plant height decrease”.
